As a reminder, the Kd is the free concentration of one partner at which half of the binding sites on the other are occupied at equilibrium, for simple one-to-one binding.

We go through three compounds from PMC5452050 (ACS Omega, 2017).

For assay [1], the system named is MOLM13^FLT3-ITD/D835Y cells. The assay is described as follows: MOLM13 cell viability. The format is cell-based. As to conditions: Homo sapiens, MOLM-13, 72 h, read-out: MOLM13^FLT3-ITD/D835Y IC50.
For another assay, the target named is T1, FLT3 (ITD, F691L) (Homo sapiens, UniProt P36888, F691L/ITD).
T1 sequence (P36888 564-993 F691L): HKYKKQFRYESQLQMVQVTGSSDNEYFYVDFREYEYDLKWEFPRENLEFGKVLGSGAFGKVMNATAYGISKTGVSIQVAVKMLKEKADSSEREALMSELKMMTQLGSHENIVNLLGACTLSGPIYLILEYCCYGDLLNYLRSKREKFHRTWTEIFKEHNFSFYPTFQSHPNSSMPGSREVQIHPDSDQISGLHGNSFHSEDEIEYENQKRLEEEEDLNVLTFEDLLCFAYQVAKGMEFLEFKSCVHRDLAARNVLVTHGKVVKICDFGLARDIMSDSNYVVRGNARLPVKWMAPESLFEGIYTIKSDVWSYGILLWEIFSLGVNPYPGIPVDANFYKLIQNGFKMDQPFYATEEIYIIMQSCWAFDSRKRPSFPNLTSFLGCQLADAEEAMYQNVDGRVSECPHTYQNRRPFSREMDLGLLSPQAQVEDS
Briefly: Kd determination. The format is binding.

The target of another assay is T2, FLT3 (K663Q) (Homo sapiens, UniProt P36888, K663Q).
T2 sequence (P36888 27-993 K663Q): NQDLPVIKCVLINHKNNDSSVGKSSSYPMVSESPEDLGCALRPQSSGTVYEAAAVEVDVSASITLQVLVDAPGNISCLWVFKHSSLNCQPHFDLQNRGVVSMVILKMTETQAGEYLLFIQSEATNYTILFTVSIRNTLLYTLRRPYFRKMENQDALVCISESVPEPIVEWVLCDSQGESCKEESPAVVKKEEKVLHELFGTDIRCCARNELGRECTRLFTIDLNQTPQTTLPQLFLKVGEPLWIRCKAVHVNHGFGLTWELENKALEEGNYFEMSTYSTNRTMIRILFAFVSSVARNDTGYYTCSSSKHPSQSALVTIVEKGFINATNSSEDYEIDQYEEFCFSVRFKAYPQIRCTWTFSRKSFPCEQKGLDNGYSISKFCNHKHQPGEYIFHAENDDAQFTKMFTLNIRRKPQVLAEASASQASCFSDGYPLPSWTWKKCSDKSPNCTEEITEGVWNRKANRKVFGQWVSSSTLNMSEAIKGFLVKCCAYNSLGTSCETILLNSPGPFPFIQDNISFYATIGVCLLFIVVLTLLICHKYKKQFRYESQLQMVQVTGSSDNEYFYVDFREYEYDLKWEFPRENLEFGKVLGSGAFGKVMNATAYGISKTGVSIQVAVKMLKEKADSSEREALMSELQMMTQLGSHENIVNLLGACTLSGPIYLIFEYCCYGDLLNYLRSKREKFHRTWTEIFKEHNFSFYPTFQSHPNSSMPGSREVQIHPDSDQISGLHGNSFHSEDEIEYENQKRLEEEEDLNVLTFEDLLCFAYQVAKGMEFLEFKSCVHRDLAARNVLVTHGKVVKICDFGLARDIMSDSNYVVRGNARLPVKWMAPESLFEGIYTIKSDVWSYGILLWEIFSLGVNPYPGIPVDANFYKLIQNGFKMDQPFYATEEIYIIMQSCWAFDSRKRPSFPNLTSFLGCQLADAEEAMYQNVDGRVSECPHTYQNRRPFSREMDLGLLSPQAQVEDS
Briefly: Kd determination. In kind it is binding.

The next assay addresses T3, FLT3 (N841I) (Homo sapiens, UniProt P36888, N841I).
T3 sequence (P36888 27-993 N841I): T2 sequence (P36888 27-993 K663Q) with Q637K, N815I
The assay is described as follows: Kd determination. In kind it is binding.

Molecules are shown by their SMILES. Substitutions are numbered along the chain they refer to. Some results are limits rather than exact numbers.

Take `CC(C)Nc1ccnc(Nc2ccccc2-c2ccccc2)n1` [Compound 6a, N^2-([1,1′-Biphenyl]-2-yl)-N^4-isopropylpyrimidine-2,4-diamine]: the IC50 in assay [1] was determined as 4260 nM. The Kd is greater than 10000 nM on FLT3 (ITD, F691L); greater than 10000 nM at FLT3 (K663Q); greater than 10000 nM at FLT3 (N841I).
As to `CC(C)Nc1ccnc(Nc2cccc(-c3cccnc3)c2)n1` [Compound 5e, N^4-Isopropyl-N^2-(3-(pyridin-3-yl)phenyl)pyrimidine-2,4-diamine], the IC50 in assay [1] was 82 nM. For the same compound, the Kd on FLT3 (ITD, F691L) worked out at 11 nM; on FLT3 (K663Q), 13 nM; on FLT3 (N841I), 11 nM.
Take `c1cncc(-c2cccc(Nc3nccc(NC4CCCCC4)n3)c2)c1` [Compound 1, N^4-Cyclohexyl-N^2-(3-(pyridin-3-yl)phenyl)pyrimidine-2,4-diamine]: the IC50 in assay [1] is 1150 nM. For the same compound, the Kd amounted to 270 nM on FLT3 (ITD, F691L); 110 nM at FLT3 (K663Q); 48 nM at FLT3 (N841I).
